According to patent US6133313A, “Insecticidal avocadofurans and triolein” (The Regents of the University of California, priority 1998, dated 2000):
“Also recorded” adds a separate entry of the source.

How the values were obtained:
Assay type in all cases: in vivo, Spodoptera exigua
S. exigua larvae = test: growth inhibition and mortality of synthetic avocadofurans and triolein in diet bioassay; set-up: key to GI (growth index): growth index calculated per J. Chem. Ecol. 19:1109 (1993), imax = 3; conditions: for 7-d Instar / 7-d Larval Weight: mean ± SE; for Relative Growth Index (RGI) vs log concentration regression (FIG. 4): log (μg/g)
Description: S. exigua larvae were used in all experiments. Larvae were reared on artificial diet modified from U.S.D.A. Agric. Res. Serv., Prod. Res. Rep., 1208:1 (1969), and maintained at 28+2° C., 14:10; light:dark (L:D) photoperiod.
The colony was collected from Orange Co., Calif. and had new genetic material added within 12 months prior to the study. The age of the cohorts tested was standardized by using neonates within 12 hours of eclosion. All bioassays were maintained at 28+2° C. 75% relative humidity (RH), and at 14:10 (L:D) photoperiod with fluorescent lighting.
The insecticidal activity of the fractions was tested with artificial diet bioassays. Treated diets were prepared by transferring 750 μl of acetone solutions of each fraction (equivalent to 300 mg crude idioblast cell oil) into 50-ml polypropylene centrifuge tubes (Fisher, Pittsburgh Pa.), evaporating the acetone, adding 2 ml of 0.1% Tween-80 solution (Fisher), homogenizing with an ultrasonic homogenizer (Co le-Parmer, Chicago Ill.), and adding prepared diet to produce a final weight of 15 g containing the equivalent of 2% idioblast oil. The mixture was vortexed for 3 mm.
Control diet was prepared by mixing 2 ml of Tween solution and 13 g of artificial diet to produce a final weight of 15 g. Control and treated diets were poured into 24-well (15.9 mm diameter and 15.9 mm depth) bioassay trays (C-D International Inc., Pitman N.J.). One neonate was added per well, and trays were placed in an incubator under the previously described conditions. Twenty-four neonates were tested for each fraction and control. Mortality and larval weights were recorded after 7 days.
The effect of the synthetically produced avocado furan compounds (>95% purity) and commercially available triolein (Sigma, St. Louis, Mo.) were tested on larval growth and mortality of S exigua. Treated and control diet were prepared as previously described.
Six different compound concentrations, chosen on the basis of studies with the oil fractions, were evaluated for both 2-(pentadecyl)furan and 2-(heptadecyl)furan: 0 (control), 600, 750, 900, 1050, and 1200 μg/g. Also, six concentrations of triolein (subfraction 1-1-12) were tested: 0 (control), 7000, 8000, 9000, 10000, and 11000 μg/g.
Twenty-four neonates were used per treatment. Bioassays were conducted as described in Example 4, and replicated 4 times for each concentration (i.e., a total of 96 larvae were tested for each concentration). Larval weight, instar, and mortality were recorded after 7 days […].
(§1) EC (effective concentration) values were calculated by subtracting the mean larval weight for each treatment from the mean weight of the controls, and dividing by the mean weight of the controls. LC (lethal concentration) values were obtained using probit analysis as described in Probit Analysis (1971) Cambridge University Press, Cambridge, UK. GI (growth index) and RGI (relative growth index) values were calculated as described in J. Chem. Ecol., 19:1109 (1993), but using an imax of 3 (the stage attained by most control larvae after 7 d). Statistical comparisons were conducted using SuperAnova Abacus Concept Inc., Berkeley, Calif. (1989).

neonate S. exigua = test: individual toxicity of avocadofurans and triolein in artificial diet; conditions: for Relative Growth Index (RGI) (FIG. 10): increasing concentrations; for LC50 (95% FL): in diet
Description: In this study, individual activity of avocadofurans was investigated quantitatively. For this purpose, eight concentrations of the avocadofurans (1) and (4) and triolein (8) were tested. Results are seen in FIG. 6.
Following pilot studies, eight concentrations of each were tested: 0, 0.5, 1, 1.5, 2, 2.5, 3, and 3.5 μmoles g^~1 diet. Also, five concentrations of triolein were tested: 0; 1,000; 2,000; 3,000; and 4,000 μg g^~1 diet. Because triolein was not compared to a structurally similar compound, a more standard dietary formulation of μg g-^1 was used rather than ^~ moles g^-1 in all triolein-treated bioassays.
Treated and control diet were prepared as described above. For each concentration the compounds were dissolved in 10 ml of Tween solution and mixed using an ultrasonic homogenizer. Untreated diet was added to make a total of 100 g and then vortexed for 3 mm. Control diet was prepared by mixing 10 ml of the Tween solution with 90 g of artificial diet to produce a final weight of 100 g. Control and treated diets were poured into 30 ml plastic cups. One neonate was placed in each cup and cups were held in an incubator. Fifteen larvae were tested at each concentration, and assays were replicated 4 times (total of 60 larvae/treatment). For each diet treatment, 9-d larval instar and weight, pupal weights, times to pupation, and larval mortality were recorded.
as §1

S. exigua = test: synergistic/joint toxicity of avocadofuran and triolein combinations; conditions: for Weight, 9-d larvae / Weight, Pupae: mean ± spread; for Developmental times: neonate-pupa, in d (unit assumed)
Excerpt: The treatments were as follows: Control, 2-(pentadecyl)furan, 2-(heptadecyl)furan, triolein, individually, and 2-(pentadecyl)furan combined with 2-(heptadecyl)furan and triolein, 2-(pentadecyl)furan combined with triolein, and 2-(heptadecyl)furan combined with triolein. Because the combined LC25 s for both avocadofurans exceed their LC50 values, a concentration for each was adjusted so that when added it would approximate the value of the avocadofurans LC50 (see Table 2). These concentrations were used whenever both avocadofurans were combined in the same treatment. Treatments were replicated four times, with 15 larvae per replicate to a total of 60 larvae/treatment.
Joint effects were determined by testing all combinations of LC25 s (estimated from probit lines shown in Table 1) of the three compounds for toxicity to S. exigua. The treatments were: control, 2-(pentadecyl)furan, 2-(heptadecyl)furan, triolein, 2-(pentadecyl)furan+triolein, 2-(heptadecyl)furan+triolein, and 2-(pentadecyl)furan+2-(heptadecyl)furan+triolein. Because the combined LC25 s for both avocadofurans exceeded their LC50 values (due to a steep slope of their LC lines), a concentration for each was used so that when added together it would approximate the value of the avocadofurans LC50 (Table 1). These concentrations were used whenever both avocadofurans were combined in the same treatment.
Treatments were replicated four times, with 15 larvae per replicate (total of 60 larvae/treatment). Dietary treatment preparations and bioassay procedures were conducted as described in Example 4. For each diet treatment, 9-d larval instar and weight, pupal weights, times to pupation, and larval mortality were recorded.

[1] = lowest concentration vs controls
[2] = Spodoptera exigua, feed or water, 168 h

CCCCCCCCCCCCCCCCCc1ccco1 [2-(heptadecyl)furan (4), 2-(heptadecyl)furan]
GI (growth index) (S. exigua larvae; 600 μg/g): 0.73 | percent reduction in larval weight vs control (S. exigua larvae; 600 μg/g): 79.46% | 7-d Instar (S. exigua larvae; 600 μg/g): 2.25 ± 0.06 | 7-d Larval Weight (S. exigua larvae; 600 μg/g): 6.44 ± 0.44 mg | GI (growth index) (S. exigua larvae; 750 μg/g): 0.62 | percent reduction in larval weight vs control (S. exigua larvae; 750 μg/g): 87.14% | 7-d Instar (S. exigua larvae; 750 μg/g): 1.95 ± 0.06 | 7-d Larval Weight (S. exigua larvae; 750 μg/g): 4.03 ± 0.44 mg | GI (growth index) (S. exigua larvae; 900 μg/g): 0.56 | percent reduction in larval weight vs control (S. exigua larvae; 900 μg/g): 89.84% | 7-d Instar (S. exigua larvae; 900 μg/g): 1.87 ± 0.06 | 7-d Larval Weight (S. exigua larvae; 900 μg/g): 3.19 ± 0.30 mg | GI (growth index) (S. exigua larvae; 1050 μg/g): 0.46 | percent reduction in larval weight vs control (S. exigua larvae; 1050 μg/g): 93.55% | 7-d Instar (S. exigua larvae; 1050 μg/g): 1.65 ± 0.07 | 7-d Larval Weight (S. exigua larvae; 1050 μg/g): 2.02 ± 0.16 mg | GI (growth index) (S. exigua larvae; 1200 μg/g): 0.23 | percent reduction in larval weight vs control (S. exigua larvae; 1200 μg/g): 95.93% | 7-d Instar (S. exigua larvae; 1200 μg/g): 1.43 ± 0.08 | 7-d Larval Weight (S. exigua larvae; 1200 μg/g): 1.28 ± 0.16 mg | mortality (S. exigua larvae; 600 to 900 μg/g): < 15% | reduction of larval development and growth (S. exigua larvae; 600 to 900 μg/g): > 75% | mortality at 600 µg/g (S. exigua larvae; Spodoptera exigua, feed or water, 168 h, 600 μg/g, 7 d): 2.08% | mortality at 750 µg/g (S. exigua larvae; Spodoptera exigua, feed or water, 168 h, 750 μg/g, 7 d): 4.2% | mortality at 900 µg/g (S. exigua larvae; Spodoptera exigua, feed or water, 168 h, 900 μg/g, 7 d): 10.4% | mortality at 1050 µg/g (S. exigua larvae; Spodoptera exigua, feed or water, 168 h, 1050 μg/g, 7 d): 16.7% | mortality at 1200 µg/g (S. exigua larvae; Spodoptera exigua, feed or water, 168 h, 1200 μg/g, 7 d): 54.2% | LC50 (95% FL) (S. exigua larvae; in diet): 1206 µg/g | comparative toxicity and growth inhibition (S. exigua larvae; in words): more toxic and growth inhibitory to S. exigua than either of the unsaturated compounds (2) and (6) | inhibition of larval growth (S. exigua larvae; in words): significantly inhibited larval growth | Relative Growth Index (RGI) vs log concentration regression (FIG. 4) (S. exigua larvae): y=4.82-1.47*log(x), r^2 =0.89 | LC25 (95% FL) (neonate S. exigua; avocadofurans, larval stage): 1.02(0.70-1.29) μmoles g^-1 of diet | effect on pupal weight (FIG. 7) (neonate S. exigua; in words): significantly reduced | larval developmental time from neonate to pupa (FIG. 8) (neonate S. exigua; in words): significantly prolonged | Relative Growth Index (RGI) (FIG. 10) (neonate S. exigua; in words): decreased with increasing concentrations | LC50 (neonate S. exigua; larval stage): 2.1 μmoles g^-1 diet | concentration significantly reducing pupal weight (FIG. 7A) (neonate S. exigua; [1]): ≥ 3 µmol/g | Mortality (%) using LC25 (S. exigua; in vivo): 23.3% | Survival to pupation (S. exigua; in vivo): 76.6% | Weight, 9-d larvae (S. exigua): 54.2 ± 5.9 mg | Weight, Pupae (S. exigua): 112.8 ± 2.6 mg | Developmental times (S. exigua): 18.0

CCCCCCCC/C=C\CCCCCCCC(=O)OCC(COC(=O)CCCCCCC/C=C\CCCCCCCC)OC(=O)CCCCCCC/C=C\CCCCCCCC [Triolein (8), triolein]
EC (effective concentration; weight reduction vs control) (S. exigua larvae; 7000 μg/g): 65.43% | GI (growth index) (S. exigua larvae; 7000 μg/g): 0.64 | 7-d Instar (S. exigua larvae; 7000 μg/g): 2.35 ± 0.08 | 7-d Larval Weight (S. exigua larvae; 7000 μg/g): 10.84 ± 1.42 mg | EC (effective concentration; weight reduction vs control) (S. exigua larvae; 8000 μg/g): 43.64% | GI (growth index) (S. exigua larvae; 8000 μg/g): 0.67 | 7-d Instar (S. exigua larvae; 8000 μg/g): 2.70 ± 0.10 | 7-d Larval Weight (S. exigua larvae; 8000 μg/g): 17.67 ± 2.05 mg | EC (effective concentration; weight reduction vs control) (S. exigua larvae; 9000 μg/g): 84.44% | GI (growth index) (S. exigua larvae; 9000 μg/g): 0.39 | 7-d Instar (S. exigua larvae; 9000 μg/g): 1.91 ± 0.08 | 7-d Larval Weight (S. exigua larvae; 9000 μg/g): 4.88 ± 0.65 mg | EC (effective concentration; weight reduction vs control) (S. exigua larvae; 10000 μg/g): 81.52% | GI (growth index) (S. exigua larvae; 10000 μg/g): 0.37 | 7-d Instar (S. exigua larvae; 10000 μg/g): 1.87 ± 0.10 | 7-d Larval Weight (S. exigua larvae; 10000 μg/g): 5.79 ± 0.96 mg | EC (effective concentration; weight reduction vs control) (S. exigua larvae; 11000 μg/g): 71.85% | GI (growth index) (S. exigua larvae; 11000 μg/g): 0.28 | 7-d Instar (S. exigua larvae; 11000 μg/g): 1.95 ± 0.13 | 7-d Larval Weight (S. exigua larvae; 11000 μg/g): 8.82 ± 2.22 mg | mortality at 7000 µg/g (S. exigua larvae; [2]): 18.8% | mortality at 8000 µg/g (S. exigua larvae; [2]): 26% | mortality at 9000 µg/g (S. exigua larvae; [2]): 40.6% | mortality at 10000 µg/g (S. exigua larvae; [2]): 42.7% | mortality at 11000 µg/g (S. exigua larvae; [2]): 59.4% | LC50 (95% FL) (S. exigua larvae; in diet): 10364 µg/g | level in artificial diet at which toxicity is exhibited (S. exigua larvae; in vivo): about 1% | inhibition of larval growth (S. exigua larvae; in words): significantly inhibited larval growth at relatively high concentrations | Relative Growth Index (RGI) vs log concentration regression (FIG. 4) (S. exigua larvae): y=7.68-1.83*log(x), r^2 =0.86 | concentration significantly reducing larval weight and development (S. exigua larvae; lowest concentration, in diet): ≥ 7000 µg/g | reduction of 9-d larval weight (FIG. 6B) (neonate S. exigua; 2,000 μg g^-1 or higher): more than 35% | comparative toxic and inhibitory effect (neonate S. exigua; in words): inhibitory at concentrations much higher than either of the avocadofurans tested in this assay | effect on larval mortality (FIG. 9) (neonate S. exigua; in words): increases larval mortality | effect on pupal weight (FIG. 7) (neonate S. exigua; in words): no effect on larval developmental time and pupal weight | larval developmental time from neonate to pupa (FIG. 8) (neonate S. exigua; in words): not significantly prolonged; also recorded: no effect on larval developmental time | Relative Growth Index (RGI) (FIG. 10) (neonate S. exigua; in words): decreased with increasing concentrations | concentration significantly reducing 9-d weight (FIG. 6B) (neonate S. exigua; [1]): ≥ 2,000 μg g^-1 | LC25 (95% FL) (neonate S. exigua; triolein, larval stage): 1,900(1,304-2,339) μg g^-1 of diet | LC50 (95% FL) (neonate S. exigua; triolein, larval stage, listed as Triolein): 3,631(2,979-5,203) μg g^-1 | LC50 (95% FL) (neonate S. exigua; triolein, larval stage, listed as triolein): 3,631 μg g^-1 | Survival to pupation (S. exigua; in vivo): 83.3% | Weight, 9-d larvae (S. exigua): 111.8 ± 10.3 mg | Weight, Pupae (S. exigua): 116.4 ± 3.7 mg | Developmental times (S. exigua): 15.3 ± 0.4 | Mortality (%) using LC25 (S. exigua; single substance, at estimated LC25): 16.7%
